Laboratory results as given in article PMC6927504, “Screening of House Dust from Chinese Homes for Chemicals with Liver X Receptors Binding Activities and Characterization of Atherosclerotic Activity Using an in Vitro Macrophage Cell Line and ApoE^−/− Mice” (Environmental Health Perspectives, 2019).

Columns and labels:
[1] = tested on: ABCA1; test: qRT-PCR of LXR target gene ABCA1 in RAW264.7 macrophages; assay type: cell-based; conditions: vehicle-treated cells set to 1, p<0.01
Procedure: (§1) RAW264.7 cells were obtained from the National Infrastructure of Cell Line Resource of Beijing, China, and the cells used for the experiment were cultured for at least three passages. Dulbecco’s Modified Eagle’s Medium (DMEM)-F12 medium containing 10% fetal bovine serum (FBS) was employed to culture the RAW264.7 cells. RAW264.7 cells were incubated at 37°C with 5% carbon dioxide. The RAW264.7 cells were plated at 2.5×10^5 cells/well (6-well plates), 6.0×10^4 cells/well (24-well plates), and 10^4 cells/well (96-well plates). The RAW264.7 cells were plated and grown overnight; then the medium was removed and fresh DMEM-F12 contained with 0.1% DMSO (control; n=3 ) or TPHP at the concentrations of 1–20,000 nM ( n=3 per group) was added. […] Then the cells were used for the quantitative reverse transcription (qRT)-PCR, cellular cholesterol efflux assay, and foam cell formation experiment.
Total RNA was isolated from RAW264.7 cells and mouse peritoneal macrophages using TRIzol reagent according to the manufacturer’s instructions. Then a Nanovue Plus™ spectrophotometer (GE Healthcare Life Science) was used to analyze the concentration, quality, and purity of the RNA. Total RNA ( 1μg ) was mixed with oligo deoxythymine (dT) ( 1μL ) at 70°C for 5 min and then combined with a mixture containing Moloney murine leukemia virus (MMLV) reverse transcriptase ( 1μL ), deoxy-ribonucleoside triphosphate (dNTP) ( 1.25μL ), Recombinant RNasin® Ribonuclease Inhibitor (Promega) ( 0.65μL ), and MMLV buffer ( 5μL ) at 42°C for 60 min. The SYBR® Green PCR Kit (TOYOBO) was used for RT-PCR analysis. Real-time fluorescence detection was performed using the StepOnePlus™ sequence detection system (Applied Biosystems). […] The following primers were designed and purchased from Sangon Biotech:
• actin: 5′-[…]-3′ and 5′-[…]-3′ ATP-binding cassette transporter A1 (ABCA1): 5′-[…]-3′ and 5′-[…]-3′ • ATP-binding cassette transporter G1 (ABCG1): 5′-[…]-3′ and 5′-[…]-3′.

[2] = tested on: RAW264.7 macrophages; test: Foam cell formation (ox-LDL, BODIPY 493/503 staining) in RAW264.7 macrophages; assay type: cell-based
Procedure: as §1
RAW264.7 cells or mouse peritoneal macrophages were plated in 24-well plates at 6.0×10^4 cells/well and grown overnight. Then the medium was removed and fresh DMEM-F12 containing 10% FBS, 20μg/mL oxidized low-density lipoprotein (ox-LDL), and 0.1% DMSO (control; n=3 ) or TPHP at the concentration of 1–20,000 nM ( n=3 per group) was added. The cells were washed with PBS, followed by fixing in 4% paraformaldehyde for 30 min and staining with boron-dipyrromethene (BODIPY) 493/503 ( 20μg/mL ) and 4′,6-diamidino-2-phenylindole (DAPI; 100 ng/mL ) for 10 min. Foam cell formation was analyzed by high-content microscopy using ImageXpress® Micro XL (Molecular Devices). From each well, 25 image fields were scanned, and MetaXpress® (Molecular Devices) was used to quantify compartmentalized changes in the fluorescence of each cell.

SMILES: O=P(Oc1ccccc1)(Oc1ccccc1)Oc1ccccc1 [TPHP, triphenyl phosphate]
- ABCA1 gene expression relative to control ([1]; 5,000 nM): 0.49±0.06 fold
- ABCA1 gene expression relative to control ([1]; 10,000 nM): 0.38±0.01 fold
- ABCA1 gene expression relative to control ([1]; 20,000 nM): 0.30±0.03 fold
- Intensity of foam cell staining relative to control ([2]; 100 nM, p<0.01): 1.64±0.02 fold
- Intensity of foam cell staining relative to control ([2]; 1,000 nM, p<0.01): 1.67±0.14 fold
- Intensity of foam cell staining relative to control ([2]; 5,000 nM, p<0.05): 1.78±0.31 fold
- Intensity of foam cell staining relative to control ([2]; 10,000 nM, p<0.05): 2.08±0.45 fold
- Intensity of foam cell staining relative to control ([2]; 20,000 nM, p<0.05): 2.09±0.52 fold
